Results: patent US11147272B2, “Pyridone compounds and agricultural and horticultural fungicides comprising the same as active ingredients” (MITSUI CHEMICALS AGRO, INC., priority 2017, dated 2021)

What was measured:
[1] = tested on: Blumeria graminis f. sp. hordei; test: Test Example D: Powdery mildew on barley; settings: Powdery mildew on barley; class of control value
Magnaporthe grisea = test: whole plant or invertebrate; format: in vivo; settings: Blast on rice; class of control value
Puccinia recondita = test: Test Example E: Brown rust on wheat; format: in vivo; settings: Brown rust on wheat; class of control value
Plasmopara viticola = test: Test Example G: Downy mildew on vine; settings: Downy mildew on vine (Neomuscat); 250 ppm spray, 2.5 ml/pot; assessed 7 to 10 days after inoculation
Alternaia brassicicola = test: Test Example C: Alternaria sooty spot on cabbage; format: in vivo; settings: Alternaria sooty spot on cabbage; class of control value
From the text: Seeds of a test plant (cabbage variety: Shikidori) were planted and cultivated until the cotyledons extended.
<Control Value> Control value=100{1−(n/3)}

Phytophthora infestans = test: whole plant or invertebrate; format: in vivo; settings: Late blight on tomato; class of control value
[2] = tested on: Colletotrichum orbiculare; test: Test Example H: Anthracnose on cucumber; settings: Anthracnose on cucumber (Sagami Hanjiro); 250 ppm spray, 2.5 ml/pot; assessed 6 to 10 days after inoculation
Botrytis cinerea = test: Test Example B: Gray mold on tomato; settings: Gray mold on tomato; class of control value

Compound | Test D control value class [1] | Test A control value class (Magnaporthe grisea) | Test E control value class (Puccinia recondita) | Test G control value class (Plasmopara viticola) | Test C control value class (Alternaia brassicicola) | Test F control value class (Phytophthora infestans) | Test H control value class [2] | Test B control value class (Botrytis cinerea)
CCC(C)c1cc(Br)c(=O)n(CC)c1-c1c(F)cc(F)cc1F (stereo not shown) [compound 32] | H (more than 50% control value) | H (more than 50% control value) | H (more than 50% control value) | L (50% or less control value) | H (more than 50% control value) | L (50% or less control value) | H (more than 50% control value) | H (more than 50% control value)
CCC(C)c1cc(Cl)c(=O)n(CC)c1-c1c(F)cc(F)cc1F (stereo not shown) [compound 33] | H (more than 50% control value) | H (more than 50% control value) | H (more than 50% control value) | L (50% or less control value) | H (more than 50% control value) | L (50% or less control value) | H (more than 50% control value) | H (more than 50% control value)
CCC(C)c1ccc(=O)n(CC)c1-c1c(F)cc(OC)cc1F (stereo not shown) [compound 34] | H (more than 50% control value) | H (more than 50% control value) | H (more than 50% control value) | H (more than 50% control value) | H (more than 50% control value) | L (50% or less control value) | H (more than 50% control value) | H (more than 50% control value)
CCC(C)c1cc(Cl)c(=O)n(CC)c1-c1c(F)cc(OC)cc1F (stereo not shown) [compound 35] | H (more than 50% control value) | H (more than 50% control value) | H (more than 50% control value) | L (50% or less control value) | H (more than 50% control value) | L (50% or less control value) | H (more than 50% control value) | H (more than 50% control value)
CCC(C)C1=C(c2c(F)cc(OC)cc2F)N(CC)C(=O)C(Br)C1 (stereo not shown) [compound 36] | H (more than 50% control value) | H (more than 50% control value) | H (more than 50% control value) | H (more than 50% control value) | H (more than 50% control value) | L (50% or less control value) | H (more than 50% control value) | H (more than 50% control value)
CCn1c(-c2c(F)cc(F)cc2F)c(CC(C)C)ccc1=O [compound 37] | L (50% or less control value) | H (more than 50% control value) | L (50% or less control value) | L (50% or less control value) | L (50% or less control value) | L (50% or less control value) | L (50% or less control value) | L (50% or less control value)
CCn1c(-c2c(F)cc(F)cc2F)c(CC(C)C)ccc1=O [compound 38] | H (more than 50% control value) | H (more than 50% control value) | H (more than 50% control value) | L (50% or less control value) | L (50% or less control value) | L (50% or less control value) | L (50% or less control value) | H (more than 50% control value)
CCn1c(-c2c(F)cc(OC)cc2F)c(CC(C)C)ccc1=O [compound 39] | H (more than 50% control value) | H (more than 50% control value) | H (more than 50% control value) | H (more than 50% control value) | H (more than 50% control value) | L (50% or less control value) | H (more than 50% control value) | H (more than 50% control value)
CCn1c(-c2c(F)cc(F)cc2F)c(CC(C)C)cc(Br)c1=O [compound 40] | H (more than 50% control value) | H (more than 50% control value) | H (more than 50% control value) | L (50% or less control value) | H (more than 50% control value) | L (50% or less control value) | H (more than 50% control value) | H (more than 50% control value)
CCn1c(-c2c(F)cc(F)cc2F)c(CC(C)C)cc(Cl)c1=O [compound 41] | H (more than 50% control value) | H (more than 50% control value) | H (more than 50% control value) | H (more than 50% control value) | H (more than 50% control value) | L (50% or less control value) | H (more than 50% control value) | H (more than 50% control value)
CCn1c(-c2c(F)cc(OC)cc2F)c(CC(C)C)cc(Cl)c1=O [compound 42] | H (more than 50% control value) | H (more than 50% control value) | H (more than 50% control value) | H (more than 50% control value) | H (more than 50% control value) | L (50% or less control value) | H (more than 50% control value) | H (more than 50% control value)
CCn1c(-c2c(F)cc(OC)cc2F)c(CC(C)C)cc(Br)c1=O [compound 43] | H (more than 50% control value) | H (more than 50% control value) | H (more than 50% control value) | H (more than 50% control value) | H (more than 50% control value) | L (50% or less control value) | H (more than 50% control value) | H (more than 50% control value)
CCn1c(-c2c(F)cccc2F)c(CO)cc(Cl)c1=O [compound 44] | L (50% or less control value) | L (50% or less control value) | H (more than 50% control value) | L (50% or less control value) | H (more than 50% control value) | L (50% or less control value) | L (50% or less control value) | H (more than 50% control value)
CCn1c(-c2c(F)cccc2F)c(COC)cc(Cl)c1=O [compound 45] | H (more than 50% control value) | H (more than 50% control value) | H (more than 50% control value) | L (50% or less control value) | H (more than 50% control value) | L (50% or less control value) | L (50% or less control value) | H (more than 50% control value)
CCC(O)c1cc(Cl)c(=O)n(CC)c1-c1c(F)cc(F)cc1F (stereo not shown) [compound 46] | H (more than 50% control value) | H (more than 50% control value) | H (more than 50% control value) | L (50% or less control value) | H (more than 50% control value) | L (50% or less control value) | H (more than 50% control value) | H (more than 50% control value)
CCC(OC)c1cc(Cl)c(=O)n(CC)c1-c1c(F)cc(F)cc1F (stereo not shown) [compound 47] | H (more than 50% control value) | H (more than 50% control value) | H (more than 50% control value) | H (more than 50% control value) | H (more than 50% control value) | L (50% or less control value) | H (more than 50% control value) | H (more than 50% control value)
CCC(OC)c1cc(Cl)c(=O)n(CC)c1-c1c(F)cc(OC)cc1F (stereo not shown) [compound 48] | H (more than 50% control value) | H (more than 50% control value) | H (more than 50% control value) | H (more than 50% control value) | H (more than 50% control value) | L (50% or less control value) | H (more than 50% control value) | H (more than 50% control value)
